# System: 485176-168-R4-J1-PDC complex spheroid growth
# Experiment: Anticancer human tumor 485176-168-R4-J1-PDC patient-derived pancreatic adenocarcinoma cell line growth inhibition [RAS]
# Conditions: for IC50: curve of first compound; for viability, T/C: stronger effect = lower value
# Text: RAS pathway inhibitors in Combinations in Complex Spheroids
# A high-throughput screen of multi-cell type tumor spheroids was designed to identify active combinations of RAS pathway inhibitors and targeted small molecules. Complex spheroids include a stromal component modeled by human endothelial cells (HUVEC) and fibroblasts modeled by human mesenchymal stem cells (MSCs). The concentration ranges selected for each drug and investigational agent were based upon clinically achievable concentrations if the clinical Cmax of the agent was known.
# Compounds. The drugs and investigational agents: abemaciclib (NSC768073), cobimetinib (NSC768068), divarasib (GDC6063, NSC841802), docetaxel (NSC628503), GDC-1971 (RLY-1971, NSC841576), gemcitabine (NSC613327), inavolisib (NSC800729), ipatasertib (NSC767898), KB-0742 (NSC834161), MRTX-1133 (NSC836407), osimertinib (NSC779217), RMC-4630 (NSC839698), RMC-6236 (NSC851965), RMC-6291 (NSC852671), Ro-3306 (NSC812927), sapanisertib (NSC764658), SN-38 (NSC673596), staurosporine (NSC755774), SY5609 (NSC837396), and tovorafenib (DAY101, NSC766906), were obtained from the National Cancer Institute (NCI) Developmental Therapeutics Program Chemical Repository. The FDA-approved anticancer drug set is available from the NCI Developmental Therapeutics Program. […] The stock solutions were prepared in dimethyl sulfoxide (DMSO, Sigma-Aldrich, St. Louis, MO, cat. D2650) at 800-fold the tested concentration and stored at -70 degrees C prior to their use. All drugs and investigational agents were tested over a range starting from a high concentration at or near the clinical Cmax and decreasing in half-log increments. If the clinical Cmax for an agent had not been determined, the highest concentration tested was 10 microM.
# Cell Culture. All cells were maintained in an incubator at 37 degrees C and 5% CO2 with 95% humidity. The PDC lines were cultured according to standard operating procedures established by the NCI PDMR. All PDCs were thawed and cultured in Matrigel-coated flasks prepared with a working solution of 1X Ham's F-12 nutrient mix, without supplementation (Invitrogen, Waltham, MA, cat. 11765054), 100 U/mL penicillin-streptomycin (Invitrogen, cat. 15140122), and 2.5% Matrigel (Corning Inc., Corning, NY, cat. 354248) for the first three passages. The 362531-283-R-J2-PDC and 782815-120-R-J1-PDC lines were cultured in 6C/Colon 1B media, which includes advanced DMEM/F-12 (Thermo Fisher Scientific, cat. 12634028), 10 mM HEPES (Thermo Fisher Scientific, cat. 15630080), 1X GlutaMAX supplement (Thermo Fisher Scientific, cat. 35050061), 0.1 mg/mL primocin (InvivoGen, San Diego, CA, cat. ant-pm-2), 10% defined fetal bovine serum, heat inactivated (HyClone Laboratories Inc., Logan, UT, cat. SH30070.03HI), 50% L-WRN conditioned media (ATCC, cat. CRL-3276), 1.25 mM N-Acetyl-L-cysteine (Sigma-Aldrich, cat. A9165), 10 mM nicotinamide (Sigma-Aldrich, cat. N0636), 1X B-27 supplement (Thermo Fisher Scientific, cat. 17504044), 1X N-2 supplement (Thermo Fisher Scientific, cat. 17502048), 50 ng/mL human EGF (Thermo Fisher Scientific, cat. PHG0311), and 10 microM Y-27632 dihydrochloride (Tocris Bioscience, cat. 1254). The K12877-001-R-J1-PDC line was cultured in 6I media, which includes all 6C/Colon 1B media plus 10 ng/mL human FGF-10 (PeproTech, cat. 100-26), 1 ng/mL human FGF-2 (PeproTech, cat. 100-18B), 1 µM prostaglandin E2 (Tocris Bioscience, cat. 2296), […] hydrocortisone (Sigma-Aldrich, cat. H4001), and […] bovine insulin (Sigma-Aldrich, cat. I6634). The K86415-001-R-J1-PDC line was cultured in 6D media, which includes all 6C/Colon 1B media components minus the L-WRN conditioned media. The 485176-168-R4-J1-PDC was cultured in PANC media, which includes all 6C/Colon 1B media plus 100 ng/mL human FGF-10 (PeproTech, cat. 100-26), 500 nM SB-431542 (Selleckchem, cat. S1067), and 10 nM gastrin (Tocris Bioscience, cat. 3006). […]
# [1] = second compound 0.0316 µM, first compound 0.0316 µM
# [2] = second compound 0.0316 µM, first compound 0.1 µM
# [3] = second compound 0.0316 µM, first compound 0.316 µM
# [4] = second compound 0.0316 µM, first compound 1 µM
# [5] = second compound 0.0316 µM, first compound 3.16 µM
# [6] = second compound 0.0316 µM, first compound 10 µM
# [7] = second compound 0.1 µM, first compound 0.0316 µM
# [8] = second compound 0.1 µM, first compound 0.1 µM
# [9] = second compound 0.1 µM, first compound 0.316 µM
# [10] = second compound 0.1 µM, first compound 1 µM
# [11] = second compound 0.1 µM, first compound 3.16 µM
# [12] = second compound 0.1 µM, first compound 10 µM
# [13] = second compound 0.316 µM, first compound 0.0316 µM
# [14] = second compound 0.316 µM, first compound 0.1 µM
# [15] = second compound 0.316 µM, first compound 0.316 µM
# [16] = second compound 0.316 µM, first compound 1 µM
# [17] = second compound 0.316 µM, first compound 3.16 µM
# [18] = second compound 0.316 µM, first compound 10 µM
# [19] = second compound 1 µM, first compound 0.0316 µM
# [20] = second compound 1 µM, first compound 0.1 µM
# [21] = second compound 1 µM, first compound 0.316 µM
# [22] = second compound 1 µM, first compound 1 µM
# [23] = second compound 1 µM, first compound 3.16 µM
# [24] = second compound 1 µM, first compound 10 µM
# 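Also: spheroids exposed to compounds for seven days before readout.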
# 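For viability, T/C in this document: luminescence viability expressed relative to DMSO vehicle wells set as 100%.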
smiles,measurement,setting,value
CC1(O)CCCC1n1c(=O)c(C(F)F)cc2cnc(NC3CCN(S(C)(=O)=O)CC3)nc21 (centres undefined) + C=CC(=O)N1CCN(c2nc(OCC3CCCN3C)nc3c(F)c(-c4nc(N)cc(C)c4C(F)(F)F)c(Cl)cc23)C(C)C1,IC50,second compound 0.00316 µM,1970 nM
same,IC50,second compound 0.01 µM,2340 nM
same,IC50,second compound 0.0316 µM,2090 nM
same,IC50,second compound 0.1 µM,2220 nM
same,IC50,second compound 0.316 µM,3650 nM
same,IC50,second compound 1 µM,1810 nM
same,"viability, T/C","second compound 0.00316 µM, first compound 0.0316 µM",97%
same,"viability, T/C","second compound 0.00316 µM, first compound 0.1 µM",77.5%
same,"viability, T/C","second compound 0.00316 µM, first compound 0.316 µM",59%
same,"viability, T/C","second compound 0.00316 µM, first compound 1 µM",60.3%
same,"viability, T/C","second compound 0.00316 µM, first compound 3.16 µM",55.9%
same,"viability, T/C","second compound 0.00316 µM, first compound 10 µM",4.16%
same,"viability, T/C","second compound 0.01 µM, first compound 0.0316 µM",80.2%
same,"viability, T/C","second compound 0.01 µM, first compound 0.1 µM",61.8%
same,"viability, T/C","second compound 0.01 µM, first compound 0.316 µM",66.7%
same,"viability, T/C","second compound 0.01 µM, first compound 1 µM",67.7%
same,"viability, T/C","second compound 0.01 µM, first compound 3.16 µM",43.9%
same,"viability, T/C","second compound 0.01 µM, first compound 10 µM",2.59%
same,"viability, T/C",[1],91.2%
same,"viability, T/C",[2],81.6%
same,"viability, T/C",[3],70.2%
same,"viability, T/C",[4],58%
same,"viability, T/C",[5],51.5%
same,"viability, T/C",[6],2.26%
same,"viability, T/C",[7],91.8%
same,"viability, T/C",[8],74.5%
same,"viability, T/C",[9],68.9%
same,"viability, T/C",[10],68.7%
same,"viability, T/C",[11],45%
same,"viability, T/C",[12],3.32%
same,"viability, T/C",[13],103%
same,"viability, T/C",[14],62.5%
same,"viability, T/C",[15],73.4%
same,"viability, T/C",[16],68.1%
same,"viability, T/C",[17],62%
same,"viability, T/C",[18],3.67%
same,"viability, T/C",[19],104%
same,"viability, T/C",[20],86.8%
same,"viability, T/C",[21],69.4%
same,"viability, T/C",[22],49.1%
same,"viability, T/C",[23],62.6%
same,"viability, T/C",[24],2.11%
NC1c2ccccc2OC12CCN(c1cnc3c(N4CCCc5ncccc54)n[nH]c3n1)CC2 (centres undefined) + C#Cc1c(F)ccc2cc(O)cc(-c3ncc4c(N5CC6CCC(C5)N6)nc(OCC56CCCN5CC(F)C6)nc4c3F)c12,IC50,second compound 0.0316 µM,> 10000 nM
same,IC50,second compound 0.1 µM,> 10000 nM
same,IC50,second compound 0.316 µM,> 10000 nM
same,IC50,second compound 1 µM,> 10000 nM
same,IC50,second compound 3.16 µM,> 10000 nM
same,IC50,second compound 10 µM,> 10000 nM
same,"viability, T/C",[1],77%
same,"viability, T/C",[2],79.1%
same,"viability, T/C",[3],78.5%
same,"viability, T/C",[4],77.6%
same,"viability, T/C",[5],75.3%
same,"viability, T/C",[6],62.4%
same,"viability, T/C",[7],83%
same,"viability, T/C",[8],82.9%
same,"viability, T/C",[9],78.7%
same,"viability, T/C",[10],76.2%
same,"viability, T/C",[11],90.1%
same,"viability, T/C",[12],62.5%
same,"viability, T/C",[13],78.4%
same,"viability, T/C",[14],82.8%
same,"viability, T/C",[15],73.9%
same,"viability, T/C",[16],72.6%
same,"viability, T/C",[17],79.3%
same,"viability, T/C",[18],58.8%
same,"viability, T/C",[19],78.6%
same,"viability, T/C",[20],74%
same,"viability, T/C",[21],85.5%
same,"viability, T/C",[22],80.6%
same,"viability, T/C",[23],87.8%
same,"viability, T/C",[24],70%
same,"viability, T/C","second compound 3.16 µM, first compound 0.0316 µM",79.8%
same,"viability, T/C","second compound 3.16 µM, first compound 0.1 µM",68.9%
same,"viability, T/C","second compound 3.16 µM, first compound 0.316 µM",64.5%
same,"viability, T/C","second compound 3.16 µM, first compound 1 µM",82.8%
same,"viability, T/C","second compound 3.16 µM, first compound 3.16 µM",80.5%
same,"viability, T/C","second compound 3.16 µM, first compound 10 µM",61.3%
same,"viability, T/C","second compound 10 µM, first compound 0.0316 µM",91.4%
same,"viability, T/C","second compound 10 µM, first compound 0.1 µM",79.2%
same,"viability, T/C","second compound 10 µM, first compound 0.316 µM",68.8%
same,"viability, T/C","second compound 10 µM, first compound 1 µM",67.2%
same,"viability, T/C","second compound 10 µM, first compound 3.16 µM",91.1%
same,"viability, T/C","second compound 10 µM, first compound 10 µM",64.5%
